For experiment [1], the system named is C. albicans. The experiment is described as follows: Horse serum-induced germ tube formation (germination) of C. albicans. To be noted: 10^−6M, 60 minutes at 37° C. after horse serum induction. In kind it is cell-based. On the procedure: C. albicans from stationary phase cultures were washed twice with distilled water and suspended in HBSS to a final concentration of 2×10^6/ml. Hyphal growth was induced by addition of 10% inactivated horse serum (GIBCO/BRL, Great Britain) to yeast incubated for 45 minutes at 37° C. with continuous shaking. Horse serum was removed by washing cells twice with HBSS and incubation was continued for 60 minutes at 37° C. in the presence of α-MSH(1-13) (SEQ ID NO: 3), (6-13) (SEQ ID NO: 2) or (11-13) (SEQ ID NO: 1) at a concentration of 10^−6M with continuous shaking. The percentage of filamentous cells was evaluated under a light microscope with the aid of hemocytometer. Experiments were run in triplicate and at least 200 cells were scored. Photomicrographs were taken with a MC100 camera attached to an Axioskop Zeiss microscope.

For experiment [2], the system named is inflammation induced in the ear by picryl chloride application. The experiment is described as follows: Picryl chloride-induced ear swelling. To be noted: for % Inhibition 3 h: 3 h after picryl chloride; for % Inhibition 6 h: 6 h after picryl chloride. In kind it is in vivo, BALB/C mice. On the procedure:
Hiltz, M. E., Catania, A., Lipton, J. M., Anti-Inflammatory Activity of aα-MSH (11-13) Analogs: Influence of Alteration in Stereochemistry, 12 Peptides 767 (1981). […] Female BALB/C mice (Simonsen Laboratories), 7 weeks old, were housed at 23-25° C. in groups of no more than 5 per cage [28 cm (L)×18 cm (W)×13 cm (H)]. They were allowed to acclimatize to standard lighting and temperature conditions for at least 1 week, with food and water available ad lib, before the experiment began. Five to ten animals were randomly assigned to each treatment group each test day, and all experiments were repeated at least twice to confirm reproducibility. To reduce error due to slight differences in responses to the irritant of animals from different shipments, tests of each agent were performed as separate experiments in which experimental and control animals were drawn from the same shipment.
In the experiments each animal was anesthetized with 1 mg of pentobarbital sodium solution ([…], Nembutal, Abbott Laboratories, Abbott park, Ill.). Baseline ear thickness was measured for both ears with a spring-loaded micrometer (Swiss Precision Instruments, Los Angeles, Calif.). Ear thickness was expressed in units of 10^−3 cm; the average thickness of unstimulated ears was approximately 25-30×10^−3 cm. After baseline measurements were taken, one of six solutions was injected IP. […] The doses of the tripeptides were 10 μg (2.6×.10^−8 M), 20 μg (5.2×.10^−8 M), 40 μg (1.04×.10^−7 M), and 80 μg (2.08×.10^−7 M). Immediately after saline or α-MSH injection, a micropipette was used to coat both sides of each ear with 10 μl […] of a 0.5% picryl chloride (Polysciences, Warrington, Pa.) solution in acetone.
Ear thickness was remeasured 3 and 6 h after picryl chloride application. Swelling was determined by subtracting baseline thickness from the measurements for each ear at 3 and 6 h. The differences for both ears were then averaged for the final analysis.
Repeated-measure ANOVA techniques were used to determine if there was an overall difference among group data for each peptide tested in separate experiments. In those cases in which the ANOVA yielded significant results, Dunnett's test was then used to compare the effects of peptide doses with control (saline) data for each of the two time periods, 3 and 6 h.

Experiment [3] relates to histamine-induced blue weal formation. In words: Sparrow/Wilhelm histamine-induced blue weal assay. In kind it is in vivo, New Zealand white rabbits. To be noted: for Result (relative intensity of blue weals, experimental vs control): scored 30 minutes after histamine. The source says: This model relies on the principal that localized, subcutaneous injections of histamine will result in a localized increase in capillary permeability. When the test animal has been pretreated with blue dye intravenously, the localized histamine injections will elicit blue-colored “weals” around the injection site. Thus, by preadministration of an effective anti-inflammatory agent the blue color of the histamine-induced weals will be much less pronounced, with the amount of color reduction being dependent on the relative amount and/or potency of the anti-inflammatory agent used.
Non-moulting New Zealand white rabbits were used for the Sparrow/Wilhelm assay. The skin of the rabbits back was closely clipped 1-2 days previous to the experiment, but not depilated, and the rabbits were kept warm until tested. […] Control rabbits received sham injections. Fifteen minutes following injection of the agent or sham, the rabbits received approximately 30 mg/kg of Pontamine blue dye as a 2.5% solution in 0.45% saline, into an exposed vein. Immediately following dye injections, histamine was injected intradermally in a 0.10 ml volume (1.25 mg histamine 0.1 ml volume) at several sites on each side of the spine. In all, one vertical row of six injections were made on each side of the spine. The relative intensity of the resultant blue weals were scored by an independent observer 30 minutes after histamine injection.

For the substance Ac-Lys-Pro-Val-NH2 [α-MSH(11-13)], the “reduction in the number of filamentous cells / inhibition of germ tube formation” value in experiment [1] was “approximately 56%”; in experiment [1] (listed as tripeptide) it was 54-58%. Also, the “% Inhibition 3 h” value in experiment [2] (10 μg IP) was 26%; in experiment [2] (20 μg IP) it was 21%; in experiment [2] (40 μg IP) it was 33%; in experiment [2] (80 μg IP) it was 50%. Besides, the “% Inhibition 6 h” value in experiment [2] (10 μg IP) was determined as 25%; in experiment [2] (20 μg IP), 19%; in experiment [2] (40 μg IP) it was 26%; in experiment [2] (80 μg IP) it was 42%. The “overall effect on inflammation (ANOVA)” value in experiment [2] (10-80 μg IP, 3 and 6 h) is “inhibited acute inflammation”. Besides, the “Result (relative intensity of blue weals, experimental vs control)” value in experiment [3] (0.625 ug/kg protected tripeptide intravenously) is listed as “No difference”; in experiment [3] (1.25 ug/kg protected tripeptide intravenously), “E lighter than C”; in experiment [3] (5 ug/kg protected tripeptide intravenously), “E lighter than C”; in experiment [3] (10 ug/kg protected tripeptide intravenously), “E lighter than C”. In experiment [3] (rabbits, intravenous), the “lowest intravenous dose giving appreciable reduction in histamine-induced blue weal formation” value is 1.25 µg/kg.

Values taken from patent US7115574B2, “System and method for support legacy operating system booting in a legacy-free system” (priority 2001, dated 2006).
